“And” between values parts separate entries of the source, which are not always exact repeats. Equal values may be shown once.
Tests used:
Assay type in all cases: in vivo
[1] = system: Fasciola hepatica aged 6 weeks resistant to salicylanilides (closantel), susceptible to the other drug families used; experiment: Controlled test in sheep: efficacy against immature F. hepatica, salicylanilide-resistant strain; settings: for efficacy: given alone at low dose rates
Source text: (§1) In six controlled tests, a total of 212 merino wethers aged 1 to 2.5 years were used. The sheep were obtained from fluke free areas in North-West New South Wales.
(§2) Some isolates used in the trials were obtained from existing laboratory populations but the majority of the strains were isolated from the field, their resistance status was defined in several controlled tests and the isolates were then maintained in the laboratory. A laboratory strain from Compton U.K. (Compton Paddock Laboratories, Newbury, Berks. UK) was included in the tests. […] The other isolates originated from properties where salicylanilide compounds were used with variable frequency for the control of fasciolosis or haemonchosis, and also various benzimidazole carbamates were used for the control of gastrointestinal nematodes. Those isolates were further selected in the laboratory with benzimidazole compounds, such as luxabendazole (Hoechst Pty.Ltd., Frankfurt am Main, Germany) or by 8 weekly dosing a group of sheep with triclabendazole (Fasinex, CIBA-GEIGY Aust.Ltd., Pendle Hill, NSW Australia) in a 2 acre paddock with natural snail habitats contaminated with Fasciola hepatica .
(§3) In the trials, F.hepatica populations were isolated from properties and passaged through suitable intermediate host snails, Lymnaea tomentosa, L.viridis and L.columella in the laboratory. Sheep were then inoculated with the metacercariae of the selected strains by intraruminal injection of metacercariae suspended in 0.4% carboxy-methylcellulose solution. The sheep were divided into groups of 4 or 5. Standardised control tests (Boray, 1969), were carried out to determine the efficacy of various drugs and combinations against immature F.hepatica isolates.
(§4) Percentage reductions of fluke burdens for the sum of the individual drugs and for the combinations were estimated and their 95 % confidence limits were determined.
(§5) The drugs tested were triclabendazole (Fasinex, CIBA-GEIGY Australia Ltd.), clorsulon (Curatrem, MSD AGVET Rahway, New Jersey, USA), luxabendazole (Hoechst Pty.Ltd., Frankfurt am Main, Germany), closantel (Seponver, SmithKline Animal Health Australia Ltd.), closantel injectible (Flukiver, Janssen Pharma, Belgium), clorsulon injectible (Ivomec F, MSD Agvet,Rahway, New Jersey, USA) and nitroxynil injectible (Trodax, Cyanamid-Webster Australia Ltd.) The commercial formulations were used and for uniform pharmacokinetic distribution they were injected intraruminally (for those drugs it is equal to oral dosing) at the selected dose rate according to the body weight of the sheep 6 weeks after inoculation. In the trials with the injectible nitroxynil the drugs were applied as a subcutaneous injection. For each trial a group of sheep were left untreated as controls. The sheep were slaughtered 16 weeks after inoculation and the flukes were recovered from the livers and counted. […] The dose rates were selected based on many preliminary studies on the efficacy against F.hepatica aged 6 weeks. […] According to accepted standards (Boray, 1969) high efficacy is achieved when the drug reduces the fluke burden by 90% or more.

[2] = system: Fasciola hepatica aged 6 weeks (Susceptible to the drugs used); experiment: Controlled test in sheep: efficacy against immature F. hepatica, susceptible strain
Source text: as §1, §2, §3, §4, §5

[3] = system: Fasciola hepatica aged 6 weeks, resistant to salicylanilides; experiment: Controlled test in sheep, subcutaneous injection: efficacy against immature F. hepatica, Hampton II strain
Source text: as §1, §2, §3, §4, §5

[4] = system: Fasciola hepatica aged 6 weeks resistant to salicylanilides (closantel) and benzimidazole carbamates (luxabendazole); experiment: Controlled test in sheep: efficacy against immature F. hepatica, multiple resistant Armidale-Morven strain
Source text: as §1, §2, §3, §4, §5

[5] = system: Fasciola hepatica aged 6 weeks resistant to triclabendazole; experiment: Controlled test in sheep: efficacy against immature F. hepatica, triclabendazole-resistant strain
Source text: as §1, §2, §3, §4, §5

[6] = 5.0 mg/kg intraruminal, 5 mg/kg
[7] = 3.0 mg/kg subcutaneous injection
[8] = 7.5 mg/kg intraruminal, 7.5 mg/kg
[9] = 5.0 mg/kg intraruminal, listed as luxabendazole, 5 mg/kg
[10] = 7.0 mg/kg subcutaneous injection
[11] = 2.0 mg/kg intraruminal, 2 mg/kg

## CCCSc1ccc2nc(NC(=O)OC)[nH]c2c1 [Albendazole, albendazole]
[1]; 5.0 mg/kg intraruminal
  Mean No. of Fluke (SD): 52.7 (6.9)
  Percent Reduction of Fluke Burden (95% Confidence limits): 28.4 (6, 72) %
[1]
  efficacy: very low efficacy

## Nc1cc(C(Cl)=C(Cl)Cl)c(S(N)(=O)=O)cc1S(N)(=O)=O [Clorsulon, clorsulon]
[2]; 3.0 mg/kg intraruminal
  Mean No. of Fluke (SD): 32.5 (4.4)
  Percent Reduction of Fluke Burden (95% Confidence limits): 25.9 (6, 67) %
[2]; 5.0 mg/kg intraruminal
  Mean No. of Fluke (SD): 30.0 (11.6)
  Percent Reduction of Fluke Burden (95% Confidence limits): 31.6 (9, 67) %
[3]; 2.0 mg/kg subcutaneous injection
  Mean No. of Fluke (SD): 18.4 (6.6)
[3]; 2.0 mg/kg subcutaneous injection, 2 mg/kg
  Percent Reduction of Fluke Burden (95% Confidence limits): 36.6 (9.76) %
[3]; 2.0 mg/kg subcutaneous injection, listed as clorsulon, 2 mg/kg
  Percent Reduction of Fluke Burden (95% Confidence limits): 36.5%
[1]; 3.0 mg/kg intraruminal
  Mean No. of Fluke (SD): 57.5 (19.6)
  Percent Reduction of Fluke Burden (95% Confidence limits): 21.9 (3, 74) %
[1]
  efficacy: very low efficacy
[4]; 5.0 mg/kg intraruminal
  Mean No. of Fluke (SD): 41.0 (3.7)
[4]; [6]
  Percent Reduction of Fluke Burden (95% Confidence limits): 52.7 (33,72) %
[4]; 5.0 mg/kg intraruminal, listed as clorsulon, 5 mg/kg
  Percent Reduction of Fluke Burden (95% Confidence limits): 52%
[5]; 3.0 mg/kg intraruminal
  Mean No. of Fluke (SD): 55.7 (42.9)
[5]; 3.0 mg/kg intraruminal, 3 mg/kg
  Percent Reduction of Fluke Burden (95% Confidence limits): 30% and 30.5 (2, 91) %
[5]; 5.0 mg/kg intraruminal
  Mean No. of Fluke (SD): 45.0 (26.3)
[5]; [6]
  Percent Reduction of Fluke Burden (95% Confidence limits): 43% and 43.9 (7, 89) %

## Cc1cc(C(C#N)c2ccc(Cl)cc2)c(Cl)cc1NC(=O)c1cc(I)cc(I)c1O (centres unmarked) [Closantel, closantel]
[3]; [7]
  Mean No. of Fluke (SD): 24.4 (14.4)
  Percent Reduction of Fluke Burden (95% Confidence limits): 15.9%
[1]; 5.0 mg/kg intraruminal
  Mean No. of Fluke (SD): 62.0 (17.1)
[1]; 7.5 mg/kg intraruminal
  Mean No. of Fluke (SD): 48.2 (38 6)
  Percent Reduction of Fluke Burden (95% Confidence limits): 34.5 (10, 72) %
[1]
  efficacy: very low efficacy
[4]; 7.5 mg/kg intraruminal
  Mean No. of Fluke (SD): 118 (113.3)
  Percent Reduction of Fluke Burden (95% Confidence limits): 0.0%
[4]; [8]
  Percent Reduction of Fluke Burden (95% Confidence limits): inefficient

## COC(=O)Nc1nc2ccc(Sc3ccccc3)cc2[nH]1 [Fenbendazole, fenbendazole]
[1]; 5.0 mg/kg intraruminal
  Mean No. of Fluke (SD): 71.0 (8.0)
  Percent Reduction of Fluke Burden (95% Confidence limits): 3.6%
[1]
  efficacy: very low efficacy

## COC(=O)Nc1nc2cc(OS(=O)(=O)c3ccc(F)cc3)ccc2[nH]1 [Luxabendazole, luxabendazole]
[2]; 5.0 mg/kg intraruminal
  Mean No. of Fluke (SD): 32.0 (9.5)
[2]; [6]
  Percent Reduction of Fluke Burden (95% Confidence limits): 27.0 (6, 67) %
[2]; [9]
  Percent Reduction of Fluke Burden (95% Confidence limits): 26%
[1]; 5.0 mg/kg intraruminal
  Mean No. of Fluke (SD): 51.7 (25.3)
[1]
  efficacy: very low efficacy
[4]; 7.5 mg/kg intraruminal
  Mean No. of Fluke (SD): 89.0 (22.6)
  Percent Reduction of Fluke Burden (95% Confidence limits): 0.0%
[4]; [8]
  Percent Reduction of Fluke Burden (95% Confidence limits): inefficient
[5]; 5.0 mg/kg intraruminal
  Mean No. of Fluke (SD): 62.7 (61.3)
[5]; [6]
  Percent Reduction of Fluke Burden (95% Confidence limits): 21.7 (1, 95) %
[5]; [9]
  Percent Reduction of Fluke Burden (95% Confidence limits): 21%

## N#Cc1cc(I)c(O)c([N+](=O)[O-])c1 [Nitroxynil, nitroxynil]
[3]; [10]
  Mean No. of Fluke (SD): 26.6 (6.6)
  Percent Reduction of Fluke Burden (95% Confidence limits): 8.3%

## COC(=O)Nc1nc2ccc([S+]([O-])c3ccccc3)cc2[nH]1 (centres unmarked) [Oxfendazole, oxfendazole]
[1]; 5.0 mg/kg intraruminal
  Mean No. of Fluke (SD): 74.5 (14.8)
[1]
  efficacy: very low efficacy

## CSc1nc2cc(Cl)c(Oc3cccc(Cl)c3Cl)cc2[nH]1 [Triclabendazole, triclabendazole]
[2]; 2.0 mg/kg intraruminal 6 weeks after inoculation, slaughter at 16 weeks
  Mean No. of Fluke (SD): 9.2 (8.3)
[2]; 2.0 mg/kg intraruminal, vs untreated controls, 2 mg/kg
  Percent Reduction of Fluke Burden (95% Confidence limits): 78.9 (58, 91) %
[2]; 2.0 mg/kg intraruminal, vs untreated controls, listed as triclabendazole, 2 mg/kg
  Percent Reduction of Fluke Burden (95% Confidence limits): 79%
[4]; 2.0 mg/kg intraruminal
  Mean No. of Fluke (SD): 25.5 (13.5)
  Percent Reduction of Fluke Burden (95% Confidence limits): 70%
[4]; [11]
  Percent Reduction of Fluke Burden (95% Confidence limits): 70.6 (53, 83) %
[5]; 2.0 mg/kg intraruminal
  Mean No. of Fluke (SD): 55.0 (51.1)
[5]; [11]
  Percent Reduction of Fluke Burden (95% Confidence limits): 31.4 (2, 91) %
[5]; 2.0 mg/kg intraruminal, listed as triclabendazole, 2 mg/kg
  Percent Reduction of Fluke Burden (95% Confidence limits): 30%
